Laboratory results as given in patent US10512631B2, “Chalcone compounds” (Beth Israel Deaconess Medical Center, Inc., priority 2015, dated 2019).

How the values were obtained:
Format in all cases: cell-based
PC3 cells [1] = assay: Immunofluorescence of P-Histone H3 and α-tubulin in PC3 cells (siRNA STMN1 or control)
Experimental: (§1) Immunofluorescence and immunostaining on cell lines and tumor samples were performed as described in Wegiel et al, Cancer research 2013, 73(23), 7009-21. Anti-mouse STMN1, anti-P (Ser10)-Histone H3, and α-tubulin antibody were obtained from Cell Signaling. β-actin antibody was obtained from Sigma-Aldrich. Cells were treated with Compound 6 (1 μM) or DMSO for 48 hours. After immunofluorescence staining, the number of P-Histone H3 was quantified per field of view at 40× magnification using Zeiss Axiovert Microscope.
(§2) siRNA against STMN1 and scramble siRNA were obtained from Darmacon (ONTARGET plus siRNA). PC3 cells were transiently transfected with siRNA against STMN1 or scramble siRNA using Lipofectamine 2000 (Invitrogen) as previously described in Wegiel et al., J. Biol. Chem. 2009, 7; 284(32):21369-78. Twenty four hours post-transfection, cells were split to 96 well plates and treated with test compounds for 72 hours. STMN1 levels were measured by immunoblotting to confirm successful knockdown.

PC3 [2] = assay: Cytoxicity / crystal violet staining, PC3; settings: Homo sapiens, PC-3; 0.01-5 μM for 72 hours, n=4
STMN1 = STMN1 immunostaining and immunoblotting in PC3 cells; settings: PC3 cells, 0.01, 0.1 and 1 μM; 30 minutes, 1 hour, 24 hours
Experimental: as §1
Snap-frozen tissue samples were homogenized in ice-cold tissue lysis buffer (250 mM NaCl, 5 mM EDTA, 1% Triton X-100, 10 mM Tris-HCl; pH 7.5) containing the protease inhibitor cocktail Complete Mini (Roche). For co-immunoprecipitation, 200 μg protein lysates in RIPA buffer and the protease inhibitor cocktail were mixed with appropriate antibodies and 30 μl Protein A/G Plus-agarose beads (Santa Cruz Biotechnology) and then rotated for 1 hour at room temperature. The proteins were washed with RIPA buffer and eluted (95° C., 5 min in SDS loading buffer). Immunoblotting was performed as previously described in Chin et al., Proc. Natl. Acad. Sci. USA 2007, 104(12), 5109-14. Antibodies: P (Ser967)-ASK1 (Cell Signaling), Ask1 (Cell Signaling), P-STMN1 (Ser16) (Cell Signaling), STMN1 (Cell Signaling), 13-Actin (Sigma) were used at 1:1000 dilution.

PC3 [3] = assay: Cytoxicity / crystal violet staining, PC3; settings: average of triplicates, % of apoptotic cells vs DMSO controls, N.A. = not active at 10 μM
Experimental: (§3) PC3 (provided by Dr. Steven Balk's laboratory in Department of Medicine at Beth Israel Deaconess Medical Center), PANC02 and CRL2119 (provided by Dr. Pankaja Seth's laboratory in Department of Medicine at Beth Israel Deaconess Medical Center), A549 (ATCC) cell lines were cultured according to manufacturer's protocols. Briefly, PC3 were cultured in RPMI medium supplemented with 10% FBS (Atlanta). PANC-2, A549 and CRL2119 were cultured in DMEM High medium supplemented with 10% FBS (Atlanta). Human bronchial epithelial cells (BEC) were cultured in Airway Epithelial Cell Basal Medium with the Bronchial Epithelial cell growth kit (ATCC) according to manufacturer's protocol and used at passages 3-5.
(§4) Cells were seeded at 5×10^3 concentration in 96 well plates and treated with test compounds or DMSO (0.001-10 μM) for 72 hours. Culture medium was removed and cells were stained with crystal violet solution (Sigma-Aldrich) for 15 minutes while shaking at room temperature. Crystal violet was then removed and cells were repeatedly washed in water. Attached cells stained with crystal violet were dried and then resuspended in 10% acetic acid. Absorbance was measured at 562 nm. The intensity of staining corresponded directly to the number of live cells.

A549 [4] = assay: Cytoxicity / crystal violet staining, A549; settings: Homo sapiens, 0.01-5 μM for 72 hours, n=4
[5] = system: PC3 cells transfected with siRNA against STMN1; assay: Crystal violet staining of PC3 cells transfected with siRNA against STMN1; settings: siRNA STMN1 vs control siRNA; 1 μM Compound 6, 1 μM Compound 7, 0.1 μM Compound 8, 72 hours
Experimental: as §4, §2

PC3 cells [6] = assay: Immunostaining of α-tubulin and β-actin in PC3 cells; settings: 24 hours
Experimental: as §1, with “Cells were treated with Compound 6 (1 μM) or DMSO for 48 hours.” left out

DNA synthesis = assay: BrDU proliferation; settings: data not shown
PC3 cells [7] = assay: Annexin V staining; settings: 24 hours
Experimental: PC3 cells were seeded at 1×10^5 concentration in 6 well plates 24 hours before experiment. Cells were treated with Compound 6 for 24 hours. Cells were harvested and apoptosis rate was measured using Annexin V-FITC staining according to manufacturer's protocol (BD Biosciences, San Jose, Calif.).

A549 [8] = assay: Cytoxicity / crystal violet staining, A549; settings: average of triplicates, % of apoptotic cells vs DMSO controls, N.A. = not active at 10 μM
Experimental: as §3, §4

Cn1ccc2cc(/C=C3\CCc4ccc(F)cc4C3=O)ccc21 [Compound 6, (2E)-7-fluoro-2-[(1-methyl-1H-indol-5-yl)methylidene]-1,2,3,4-tetrahydronaphthalen-1-one]
number of cells undergoing mitosis (P-Histone H3) and normal mitotic spindles (α-tubulin) (PC3 cells [1]; 1 μM): blocked number of cells undergoing mitosis
microtubule destabilization, aberrant mitotic spindle and P-Histone H3 positive cells in the absence of STMN1 (PC3 cells [1]; siRNA against STMN1, 1 μM): in part reversed
IC50 (PC3 [2]): 147 nM
STMN1 level by immunoblotting (STMN1): very early (30 minutes to 1 hour) stabilization of STMN1
Cytoxicity (% cell killing at 10 μM) PC3 (PC3 [3]): 49%
IC50 (A549 [4]): 208 nM
cell death in response to compound in the absence of STMN1 [5]: attenuated in the absence of STMN1
β-actin microfilament cytoskeleton (PC3 cells [6]; 1 μM): disintegrated β-actin microfilament cytoskeleton
microtubule stability (α-tubulin immunostaining) (PC3 cells [6]; Compound 6 1 μM or docetaxel 20 nM): suppressed mitotic spindle formation, as well as accumulation of α-tubulin and microtubules
DNA synthesis (BrDU proliferation) (DNA synthesis): did not inhibit DNA synthesis
Annexin V-positive cells (PC3 cells [7]): increased number of Annexin V-positive cells
Cytoxicity (% cell killing at 10 μM) A549 (A549 [8]): 47%
